The first experiment relates to COV362. The experiment can be described thus: drug sensitivity score (DSS) from 5-point dose-response viability curve (DSS (area-under-curve based score)); higher = more sensitive (stronger growth inhibition or killing); extreme values may be limits of the assay. Conditions: exposure time: 72 h; concentration range: 5 concentrations over 10,000-fold range. In outline: (§1)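 Ovarian cancer and normal ovarian cell lines were tested in 384-well plates, with drugs dispensed acoustically (Echo 550) in DMSO or water at five concentrations covering a 10,000-fold range. After 1,500 cells per well were added, plates were incubated for 3 days at 37°C and 5% CO2, and viability was read by CellTiter-Glo luminescence on a PHERAstar FS. Breeze software gave a drug sensitivity score for each cell line and drug, where a higher score means greater sensitivity. A value of zero means no response.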
The compound `Cc1cc(Nc2cc(N3CCN(C)CC3)nc(/C=C/c3ccccc3)n2)n[nH]1` [ENMD-2076] displayed a drug sensitivity score of 6.3.

`Cc1cc(C)c(CNC(=O)c2cc(-c3ccc(CN4CCOCC4)cc3)cc3c2cnn3C2CCCC2)c(=O)[nH]1` [EPZ-5687] returned a drug sensitivity score of 1.1.

With `NC(=O)/C(=C/n1cnc(-c2cc(C(F)(F)F)cc(C(F)(F)F)c2)n1)c1cncnc1` [Eltanexor], the drug sensitivity score was 10.9.

In the case of `CC(C)(O)CNc1nc(Nc2ccnc(C(F)(F)F)c2)nc(-c2cccc(C(F)(F)F)n2)n1` [Enasidenib], the drug sensitivity score amounted to 1.1.

As to `COC(=O)N[C@@H](C)CNc1nccc(-c2cn(C(C)C)nc2-c2cc(Cl)cc(NS(C)(=O)=O)c2F)n1` [Encorafenib], the drug sensitivity score is 0.

The compound `C[C@@H]1CN(C(=O)c2ccc(NC(=O)c3cc(O[C@H](C)c4c(Cl)ccc(F)c4Cl)c(N)nn3)cc2)C[C@H](C)N1` [Ensartinib] displayed a drug sensitivity score of 0.

Take `Nc1ccccc1NC(=O)c1ccc(CNC(=O)OCc2cccnc2)cc1` [Entinostat]: the drug sensitivity score was found to be 0.

Regarding `c1cn2cc(-c3ccc4cn[nH]c4c3)nc(Nc3ccc(N4CCOCC4)cc3)c2n1` [Entospletinib], the drug sensitivity score was 0.

With `CN1CCN(c2ccc(C(=O)Nc3n[nH]c4ccc(Cc5cc(F)cc(F)c5)cc34)c(NC3CCOCC3)c2)CC1` [Entrectinib], the drug sensitivity score came out at 0.1.

`CNC(=O)c1ccc(N2C(=S)N(c3ccc(C#N)c(C(F)(F)F)c3)C(=O)C2(C)C)cc1F` [Enzalutamide]: the drug sensitivity score was found to be 0.

The compound `Cn1cc(C2=C(c3cn(C4CCN(Cc5ccccn5)CC4)c4ccccc34)C(=O)NC2=O)c2ccccc21` [Enzastaurin] yielded a drug sensitivity score of 1.6.

The compound `NS(=O)(=O)NCCNc1nonc1/C(=N/O)Nc1ccc(F)c(Br)c1` [Epacadostat] gave a drug sensitivity score of 0.

In turn, `COc1cccc2c1C(=O)c1c(O)c3c(c(O)c1C2=O)C[C@@](O)(C(=O)CO)C[C@@H]3O[C@H]1C[C@H](N)[C@@H](O)[C@H](C)O1` [Epirubicin] gave a drug sensitivity score of 1.

Regarding `CCOc1ccccc1-n1c(C(C)N2CCN(C(=O)COc3ccc(Cl)cc3)CC2)nc2ccccc2c1=O` (stereo not given) [Erastin], the drug sensitivity score is 1.4.

Compound `COc1cc(OC)cc(N(CCNC(C)C)c2ccc3ncc(-c4cnn(C)c4)nc3c2)c1` [Erdafitinib] displayed a drug sensitivity score of 0.

The next experiment deals with JHOS2. The description is as above. The settings on record: exposure time: 72 h; concentration range: 5 concentrations over 10,000-fold range. In outline:
as §1
`Cc1cc(Nc2cc(N3CCN(C)CC3)nc(/C=C/c3ccccc3)n2)n[nH]1` [ENMD-2076] returned a drug sensitivity score of 5.1.

Turning to `Cc1cc(C)c(CNC(=O)c2cc(-c3ccc(CN4CCOCC4)cc3)cc3c2cnn3C2CCCC2)c(=O)[nH]1` [EPZ-5687], the drug sensitivity score amounted to 0.

Regarding `NC(=O)/C(=C/n1cnc(-c2cc(C(F)(F)F)cc(C(F)(F)F)c2)n1)c1cncnc1` [Eltanexor], the drug sensitivity score amounted to 19.

In turn, `CC(C)(O)CNc1nc(Nc2ccnc(C(F)(F)F)c2)nc(-c2cccc(C(F)(F)F)n2)n1` [Enasidenib] had a drug sensitivity score of 0.

As for `COC(=O)N[C@@H](C)CNc1nccc(-c2cn(C(C)C)nc2-c2cc(Cl)cc(NS(C)(=O)=O)c2F)n1` [Encorafenib], the drug sensitivity score was 0.1.

In turn, `C[C@@H]1CN(C(=O)c2ccc(NC(=O)c3cc(O[C@H](C)c4c(Cl)ccc(F)c4Cl)c(N)nn3)cc2)C[C@H](C)N1` [Ensartinib] displayed a drug sensitivity score of 0.

The compound `Nc1ccccc1NC(=O)c1ccc(CNC(=O)OCc2cccnc2)cc1` [Entinostat] registered a drug sensitivity score of 4.7.

`c1cn2cc(-c3ccc4cn[nH]c4c3)nc(Nc3ccc(N4CCOCC4)cc3)c2n1` [Entospletinib] registered a drug sensitivity score of 0.1.

With `CN1CCN(c2ccc(C(=O)Nc3n[nH]c4ccc(Cc5cc(F)cc(F)c5)cc34)c(NC3CCOCC3)c2)CC1` [Entrectinib], the drug sensitivity score was determined as 0.

Consider `CNC(=O)c1ccc(N2C(=S)N(c3ccc(C#N)c(C(F)(F)F)c3)C(=O)C2(C)C)cc1F` [Enzalutamide], for which the drug sensitivity score was found to be 0.

Consider `Cn1cc(C2=C(c3cn(C4CCN(Cc5ccccn5)CC4)c4ccccc34)C(=O)NC2=O)c2ccccc21` [Enzastaurin], for which the drug sensitivity score is 0.1.

The compound `NS(=O)(=O)NCCNc1nonc1/C(=N/O)Nc1ccc(F)c(Br)c1` [Epacadostat] had a drug sensitivity score of 0.9.

`COc1cccc2c1C(=O)c1c(O)c3c(c(O)c1C2=O)C[C@@](O)(C(=O)CO)C[C@@H]3O[C@H]1C[C@H](N)[C@@H](O)[C@H](C)O1` [Epirubicin]: the drug sensitivity score came to 5.7.

In turn, `CCOc1ccccc1-n1c(C(C)N2CCN(C(=O)COc3ccc(Cl)cc3)CC2)nc2ccccc2c1=O` (stereo not given) [Erastin] displayed a drug sensitivity score of 0.

`COc1cc(OC)cc(N(CCNC(C)C)c2ccc3ncc(-c4cnn(C)c4)nc3c2)c1` [Erdafitinib]: the drug sensitivity score was found to be 0.

A further experiment concerns CAOV3. The description is as above. Conditions: exposure time: 72 h; concentration range: 5 concentrations over 10,000-fold range. In outline:
as §1
Consider `Cc1cc(Nc2cc(N3CCN(C)CC3)nc(/C=C/c3ccccc3)n2)n[nH]1` [ENMD-2076], for which the drug sensitivity score stood at 10.3.

In turn, `Cc1cc(C)c(CNC(=O)c2cc(-c3ccc(CN4CCOCC4)cc3)cc3c2cnn3C2CCCC2)c(=O)[nH]1` [EPZ-5687] showed a drug sensitivity score of 0.

The compound `NC(=O)/C(=C/n1cnc(-c2cc(C(F)(F)F)cc(C(F)(F)F)c2)n1)c1cncnc1` [Eltanexor] gave a drug sensitivity score of 18.9.

The compound `CC(C)(O)CNc1nc(Nc2ccnc(C(F)(F)F)c2)nc(-c2cccc(C(F)(F)F)n2)n1` [Enasidenib] came in with a drug sensitivity score of 0.

For `COC(=O)N[C@@H](C)CNc1nccc(-c2cn(C(C)C)nc2-c2cc(Cl)cc(NS(C)(=O)=O)c2F)n1` [Encorafenib], the drug sensitivity score is 0.3.

Turning to `C[C@@H]1CN(C(=O)c2ccc(NC(=O)c3cc(O[C@H](C)c4c(Cl)ccc(F)c4Cl)c(N)nn3)cc2)C[C@H](C)N1` [Ensartinib], the drug sensitivity score was 1.5.

For `Nc1ccccc1NC(=O)c1ccc(CNC(=O)OCc2cccnc2)cc1` [Entinostat], the drug sensitivity score turned out to be 5.5.

`c1cn2cc(-c3ccc4cn[nH]c4c3)nc(Nc3ccc(N4CCOCC4)cc3)c2n1` [Entospletinib] displayed a drug sensitivity score of 0.

Compound `CN1CCN(c2ccc(C(=O)Nc3n[nH]c4ccc(Cc5cc(F)cc(F)c5)cc34)c(NC3CCOCC3)c2)CC1` [Entrectinib] returned a drug sensitivity score of 0.6.

As for `CNC(=O)c1ccc(N2C(=S)N(c3ccc(C#N)c(C(F)(F)F)c3)C(=O)C2(C)C)cc1F` [Enzalutamide], the drug sensitivity score turned out to be 0.

The compound `Cn1cc(C2=C(c3cn(C4CCN(Cc5ccccn5)CC4)c4ccccc34)C(=O)NC2=O)c2ccccc21` [Enzastaurin] gave a drug sensitivity score of 0.

Consider `NS(=O)(=O)NCCNc1nonc1/C(=N/O)Nc1ccc(F)c(Br)c1` [Epacadostat], for which the drug sensitivity score came to 0.

`COc1cccc2c1C(=O)c1c(O)c3c(c(O)c1C2=O)C[C@@](O)(C(=O)CO)C[C@@H]3O[C@H]1C[C@H](N)[C@@H](O)[C@H](C)O1` [Epirubicin]: the drug sensitivity score was found to be 9.9.

Take `CCOc1ccccc1-n1c(C(C)N2CCN(C(=O)COc3ccc(Cl)cc3)CC2)nc2ccccc2c1=O` (stereo not given) [Erastin]: the drug sensitivity score is 0.9.

The compound `COc1cc(OC)cc(N(CCNC(C)C)c2ccc3ncc(-c4cnn(C)c4)nc3c2)c1` [Erdafitinib] yielded a drug sensitivity score of 0.

For the origin of these results see the supplement of paper PMC11616607.
